What was measured:
[1] = system: Trypanosoma brucei brucei; experiment: Antitrypanosomal activity against tbAT1 deficient Trypanosoma brucei brucei at 100 uM after 2 days by alamar blue assay; assay type: functional, organism-based
[2] = system: Trypanosoma brucei brucei; experiment: Antitrypanosomal activity against wild type Trypanosoma brucei brucei expressing P2 transporter at 100 uM after 2 days by alamar blue assay; assay type: functional, organism-based

| SMILES | EC50 [1] | EC50 [2] |
| --- | --- | --- |
| CC(Nc1nc(N)nc(N)n1)C(=O)OC(CN)CON.Cl.Cl (centres undefined) | Not Active |  |
| Cl.Cl.NCC(O)CON (centres undefined) |  | Not Active |
| Cl.Cl.NCC(CON)OC(=O)CCNc1nc(N)nc(N)n1 (centres undefined) | Not Active |  |
| Cl.Cl.NCC(CON)OC(=O)CNc1nc(N)nc(N)n1 (centres undefined) | Not Active |  |
